Measurements from a flash point compilation (Sun et al. 2020).

| flash point [°C] | Structure (SMILES) |
| --- | --- |
| 86 | CCC#CCCCCCCCl [10-chloro-3-decyne] |
| 43 | NCC1CCCCC1 [(aminomethyl)cyclohexane] |
| 76 | CCN(CC)C(C)=O [N,N-diethylacetamide] |
| 57 | CN(C)C=O [N,N-dimethylformamide] |
| -36 | CCN(C)C [N-ethyldimethylamine] |
| 86 | CCNC=O [N-ethylformamide] |
| 2 | CCCCNC [N-methylbutylamine] |
| -20 | CNC(C)C [N-methylisopropylamine] |
| 14 | CN1CCOCC1 [N-methylmorpholine] |
| 93 | CCC(C)Nc1ccccc1 (stereo not given) [N-sec-butylaniline] |
| 63 | C=CN(C)C(C)=O [N-vinyl-N-methylacetamide] |
| 40 | CC(=O)O [aceticacid] |
| 2 | CC#N [acetonitrile] |
| 77 | CC(=O)c1ccccc1 [acetophenone] |
| 42 | C=CCOC(=O)CCC [allylbutanoate] |
| 63 | C=CCOc1ccccc1 [allylphenylether] |
| 29 | C=CCSCCC [allylpropylsulfide] |
| 70 | N#Cc1ccccc1 [benzonitrile] |
| 65 | NCc1ccccc1 [benzylamine] |
| 53 | COCc1ccccc1 [benzylmethylether] |
| 73 | CSCc1ccccc1 [benzylmethylsulfide] |
| 96 | CCC(=O)OCc1ccccc1 [benzylpropanoate] |

| flash point [°C] | Structure (SMILES) |
| --- | --- |
| 58 | COCCNCCOC [bis(2-methoxyethyl)amine] |
| -7 | CCCC=O [butanal] |
| 69 | CCCC(=O)O [butanoicacid] |
| 32 | CCCCC1CCCC1 [butylcyclopentane] |
| 18 | CCCCOC=O [butylformate] |
| -10 | CCCCOC [butylmethylether] |
| 38 | CCCCOC(=O)CC [butylpropanoate] |
| 15 | ClC1CCCC1 [chlorocyclopentane] |
| 6 | C[C@H]1CC[C@@H](C)CC1 [cis-1,4-dimethylcyclohexane] |
| -6 | C/C=C\CCCC [cis-2-heptene] |
| -25 | C/C=C\CCC [cis-2-hexene] |
| -9 | CC/C=C\CCC [cis-3-heptene] |
| 17 | CCC/C=C\CCC [cis-4-octene] |
| -4 | NC1CCC1 [cyclobutylamine] |
| 56 | O=C1CCCCCC1 [cycloheptanone] |
| 41 | O=CC1CCCCC1 [cyclohexanecarboxaldehyde] |
| 63 | OC1CCCCC1 [cyclohexanol] |
| 43 | O=C1CCCCC1 [cyclohexanone] |
| 24 | C1CCC2OC2C1 (stereo not given) [cyclohexeneoxide] |
| 82 | C=C(C)C(=O)OC1CCCCC1 [cyclohexylmethacrylate] |
| 68 | CCC(=O)OC1CCCCC1 [cyclohexylpropanoate] |
| 43 | C1CCCCCCCC1 [cyclononane] |

| flash point [°C] | Structure (SMILES) |
| --- | --- |
| 51 | OC1CCCC1 [cyclopentanol] |
| -1 | COC1CCCC1 [cyclopentylmethylether] |
| -25 | NC1CC1 [cyclopropylamine] |
| 83 | CCCCCCCCCC=O [decanal] |
| 92 | CCCCCCCCCC#N [decanenitrile] |
| 104 | CCCCCCCCCCOC(C)=O [decylacetate] |
| 39 | CCC(C)SC(C)CC (stereo not given) [di-sec-butylsulfide] |
| 27 | CC(C)(C)SC(C)(C)C [di-tert-butylsulfide] |
| -7 | C=CCOCC=C [diallylether] |
| -5 | CCOCOCC [diethoxymethane] |
| 33 | CCOC(=O)OCC [diethylcarbonate] |
| 39 | CCSSCC [diethyldisulfide] |
| -10 | CCSCC [diethylsulfide] |
| 30 | CC(C)CNCC(C)C [diisobutylamine] |
| 49 | CC(C)CC(=O)CC(C)C [diisobutylketone] |
| 77 | CC(C)CCSCCC(C)C [diisopentylsulfide] |
| -28 | CC(C)OC(C)C [diisopropylether] |
| 57 | CCCCCOCCCCC [dipentylether] |
| 127 | c1ccc(Cc2ccccc2)cc1 [diphenylmethane] |
| 7 | CCCNCCC [dipropylamine] |
| 55 | CCCOC(=O)OCCC [dipropylcarbonate] |
| 28 | CCCSCCC [dipropylsulfide] |

| flash point [°C] | Structure (SMILES) |
| --- | --- |
| 102 | CCCCCCCCCCCC=O [dodecanal] |
| 12 | CCO [ethanol] |
| 13 | CCOC(=O)C(C)C [ethyl2-methylpropanoate] |
| 70 | CCOC(=O)CC(C)=O [ethylacetoacetate] |
| 21 | CCc1ccccc1 [ethylbenzene] |
| 84 | CCOC(=O)c1ccccc1 [ethylbenzoate] |
| 20 | CCCC(=O)OCC [ethylbutanoate] |
| 135 | CCOC(=O)C=Cc1ccccc1 [ethylcinnamate] |
| -19 | CCOC=O [ethylformate] |
| 19 | C=C(C)C(=O)OCC [ethylmethacrylate] |
| -18 | CCSC [ethylmethylsulfide] |
| 35 | CCCCC(=O)OCC [ethylpentanoate] |
| -25 | CCCOCC [ethylpropylether] |
| -45 | C=COCC [ethylvinylether] |
| -15 | Fc1ccccc1 [fluorobenzene] |
| 109 | CCCCCCC(=O)O [heptanoicacid] |
| 67 | CCCCCCCOC(C)=O [heptylacetate] |
| 44 | CCCCCCCN [heptylamine] |
| 60 | CCCCCCCOC=O [heptylformate] |
| 102 | CCCCCC(=O)O [hexanoicacid] |
| 113 | CCCCCC(=O)OC(=O)CCCCC [hexanoicanhydride] |
| 27 | CCCCCCN [hexylamine] |

| flash point [°C] | Structure (SMILES) |
| --- | --- |
| 83 | CCCCCCc1ccccc1 [hexylbenzene] |
| 65 | CCCCCCOC(=O)CC [hexylpropanoate] |
| 67 | CC(C)C(=O)OC(=O)C(C)C [isobutanoicanhydride] |
| -10 | CC(C)CN [isobutylamine] |
| 50 | CC(C)Cc1ccccc1 [isobutylbenzene] |
| 102 | CC(C)COC(=O)c1ccccc1 [isobutylbenzoate] |
| 4 | CC(C)COC=O [isobutylformate] |
| 46 | CCC(=O)OCCC(C)C [isopentylpropanoate] |
| 84 | CC1=CC(=O)CC(C)(C)C1 [isophorone] |
| 2 | CC(=O)OC(C)C [isopropylacetate] |
| 33 | CC(C)OCC1CO1 (stereo not given) [isopropylglycidylether] |
| -47 | COC(C)C [isopropylmethylether] |
| 51 | CCc1cccc(CC)c1 [m-diethylbenzene] |
| 38 | CCc1cccc(C)c1 [m-ethyltoluene] |
| 47 | Cc1cccc(C(C)C)c1 [m-isopropyltoluene] |
| 89 | CCCCCC#CC(=O)OC [methyl2-octynoate] |
| 80 | COC(=O)c1ccccc1 [methylbenzoate] |
| 60 | COC(=O)C1CCCCC1 [methylcyclohexanecarboxylate] |
| 18 | COC(=O)C1CC1 [methylcyclopropanecarboxylate] |
| 52 | CCCCCCC(=O)OC [methylheptanoate] |
| 10 | C=C(C)C(=O)OC [methylmethacrylate] |

| Structure (SMILES) | flash point [°C] |
| --- | --- |
| CC(C)=O [acetone] | -20 |
| C=CCN [allylamine] | -28 |
| Nc1ccccc1 [aniline] | 70 |
| O=Cc1ccccc1 [benzaldehyde] | 62 |
| Sc1ccccc1 [benzenethiol] | 51 |
| ClCc1ccccc1 [benzylchloride] | 60 |
| Brc1ccccc1 [bromobenzene] | 51 |
| BrC1CCCCC1 [bromocyclohexane] | 62 |
| CCBr [bromoethane] | -20 |
| CCCCOC(C)=O [butylacetate] | 25 |
| CCCC#N [butyronitrile] | 18 |
| Clc1ccccc1 [chlorobenzene] | 28 |
| C1CC[C@H]2CCCC[C@H]2C1 [cis-decalin] | 57 |
| C=CCSSCC=C [diallyldisulfide] | 62 |
| CCOCC [diethylether] | -40 |
| CC(C)COC(=O)c1ccccc1C(=O)OCC(C)C [diisobutylphthalate] | 185 |
| C=COC=C [divinylether] | -47 |
| CCOC(=O)CCl [ethylchloroacetate] | 53 |
| O=Cc1ccco1 [furfural] | 58 |
| OCc1ccco1 [furfurylalcohol] | 75 |
| CC(C)C#N [isobutyronitrile] | 8 |
